Test results taken from patent US20240041042A1, “1-(PYRIDYL)-5-AZINYLPYRAZOLE DERIVATIVES, AND THEIR USE FOR CONTROL OF UNDESIRED PLANT GROWTH” (Bayer Aktiengesellschaft, priority 2020, published 2024).

Tests used:
Format in all cases: in vivo
[1] = system: Alopecurus myosuroides (ALOMY); experiment: Pre-emergence herbicidal action against ALOMY; details: scored visually after about 3 weeks, 100% = plants have died
Outline: (§1)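 Greenhouse pot trial: seeds sown, soil-covered, sprayed before emergence with compound in water (0.5% additive; 600 l/ha; ≤320 g/ha). Scoring visual, ~3 weeks, 0–100% scale vs untreated.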

[2] = system: Amaranthus retroflexus (AMARE); experiment: Pre-emergence herbicidal action against AMARE; details: visual scoring after about 3 weeks vs untreated controls
Outline: as §1

[3] = system: Avena fatua (AVEFA); experiment: Pre-emergence herbicidal action against AVEFA; details: 320 g/ha, visual scoring after about 3 weeks vs untreated controls
Outline: as §1

[4] = system: Echinochloa crus-galli (ECHCG); experiment: Pre-emergence herbicidal action against ECHCG; details: dosage 320 g/ha
Outline: as §1

[5] = system: Lolium rigidum (LOLRI); experiment: Pre-emergence herbicidal action against LOLRI; details: dosage 320 g/ha
Outline: as §1

[6] = system: Matricaria inodora (MATIN); experiment: Pre-emergence herbicidal action against MATIN
Outline: as §1

[7] = system: Pharbitis purpurea (PHBPU); experiment: Pre-emergence herbicidal action against PHBPU; details: dosage 320 g/ha
Outline: as §1

[8] = system: Polygonum convolvulus (POLCO); experiment: Pre-emergence herbicidal action against POLCO; details: dosage 320 g/ha
Outline: as §1

[9] = system: Setaria viridis (SETVI); experiment: Pre-emergence herbicidal action against SETVI; details: dosage 320 g/ha
Outline: as §1

[10] = system: Verconica persica (VERPE); experiment: Pre-emergence herbicidal action against VERPE
Outline: as §1

[11] = system: Viola tricolor (VIOTR); experiment: Pre-emergence herbicidal action against VIOTR
Outline: as §1

[12] = system: Oryza sativa (ORYSA); details: pre-emergence, 80 g/ha, crop plant compatibility, in comparison to untreated controls
Outline: (§2)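 Scoring: visual, % of untreated control, about 3 weeks after a pre-emergence application to the soil surface. Application used WP or EC formulations diluted in water with 0.5% additive at 600 l/ha; dosage levels are marked by suffixes a, b and c.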

[13] = system: Abutilon theophrasti (ABUTH); experiment: Post-emergence herbicidal action against ABUTH; details: 320 g/ha, visual rating about 3 weeks after treatment vs untreated controls (100% = plants have died, 0% = like control plants)
Outline: (§3)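 Greenhouse plants sprayed at the one-leaf stage, 2–3 weeks after sowing, with WP or EC formulations plus 0.5% additive at 600 l/ha water. Activity rated visually after about 3 weeks versus untreated controls (100% = dead, 0% = like control), at 320 g/ha or lower.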

[14] = system: Alopecurus myosuroides (ALOMY); experiment: Post-emergence herbicidal action against ALOMY; details: visual rating about 3 weeks after treatment vs untreated controls (100% = plants have died, 0% = like control plants)
Outline: as §3

[15] = system: Amaranthus retroflexus (AMARE); experiment: Post-emergence herbicidal action against AMARE
Outline: as §3

[16] = system: Avena fatua (AVEFA); experiment: Post-emergence herbicidal action against AVEFA; details: 320 g/ha, visual rating about 3 weeks after treatment
Outline: as §3

[17] = system: Echinochloa crus-galli (ECHCG); experiment: Post-emergence herbicidal action against ECHCG
Outline: as §3

[18] = system: Lolium rigidum (LOLRI); experiment: Post-emergence herbicidal action against LOLRI
Outline: as §3

[19] = system: Matricaria inodora (MATIN); experiment: Post-emergence herbicidal action against MATIN; details: dosage 320 g/ha
Outline: as §3

[20] = system: Pharbitis purpurea (PHBPU); experiment: Post-emergence herbicidal action against PHBPU
Outline: as §3

[21] = system: Polygonum convolvulus (POLCO); experiment: Post-emergence herbicidal action against POLCO; details: dosage 320 g/ha
Outline: as §3

[22] = system: Verconica persica (VERPE); experiment: Post-emergence herbicidal action against VERPE
Outline: as §3

[23] = system: Viola tricolor (VIOTR); experiment: Post-emergence herbicidal action against VIOTR
Outline: as §3

[24] = system: Oryza sativa (ORYSA); details: crop plant compatibility, 80 g/ha, effect in comparison to untreated controls
Outline: (§4)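 Foliar application at the one-leaf stage: WP/EC formulation, 0.5% additive, 600 l/ha water. Greenhouse-grown in sandy loam. Endpoint is visual % injury relative to untreated controls at about 3 weeks.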

[25] = system: Zea mays (ZEAMX); details: crop plant compatibility, 80 g/ha, effect vs untreated controls
Outline: as §4

[26] = system: Zea mays (ZEAMX); details: pre-emergence, 80 g/ha, crop plant compatibility, in comparison to untreated controls
Outline: as §2

[27] = system: Setaria viridis (SETVI); experiment: Post-emergence herbicidal action against SETVI
Outline: as §3

[28] = 320 g/ha, visual rating about 3 weeks after treatment

SMILES	Pre-emergence action against ALOMY ([1]; 320 g/ha) [%]	Pre-emergence action against AMARE in % ([2]; 320 g/ha) [%]	Pre-emergence action against ECHCG in % [4] [%]	Pre-emergence action against LOLRI in % [5] [%]	Pre-emergence action against MATIN in % ([6]; dosage 320 g/ha) [%]	Pre-emergence action against POLCO in % [8] [%]	Pre-emergence action against SETVI in % [9] [%]	Pre-emergence action against VIOTR in % ([11]; 320 g/ha, Viola tricolor) [%]	Pre-emergence action against VIOTR in % ([11]; dosage 80 g/ha) [%]	Pre-emergence action against ORYSA in % [12] [%]	Post-emergence action against ABUTH in % [13] [%]	Post-emergence action against ALOMY in % ([14]; 320 g/ha) [%]	Post-emergence action against AMARE in % [15, 28] [%]	Post-emergence action against ECHCG in % ([17]; dosage 80 g/ha) [%]	Post-emergence action against ECHCG in % ([17]; dosage 320 g/ha) [%]	Post-emergence action against LOLRI in % ([18]; dosage 320 g/ha) [%]	Post-emergence action against PHBPU in % ([20]; dosage 80 g/ha) [%]	Post-emergence action against PHBPU in % ([20]; dosage 320 g/ha) [%]	Post-emergence action against POLCO in % [21] [%]	Post-emergence action against ORYSA in % [24] [%]	also measured
COC(=O)COc1nn(-c2nc(F)ccc2F)c(-c2ccc(F)nc2)c1Br [Example I-369]	100	90	100	90	90	90	90	100	80	20	80	100	80	80	80	90	80	90	80	20	Pre-emergence action against ALOMY ([1]; 80 g/ha): 80%; Pre-emergence action against AMARE in % ([2]; 80 g/ha): 90%; Pre-emergence action against AVEFA in % [3]: 80%; Pre-emergence action against MATIN in % ([6]; dosage 80 g/ha): 80%; Pre-emergence action against PHBPU in % [7]: 90%; Pre-emergence action against VERPE in % ([10]; dosage 80 g/ha): 90%; Pre-emergence action against VERPE in % ([10]; dosage 320 g/ha): 90%; Post-emergence action against ALOMY in % ([14]; 80 g/ha): 80%; Post-emergence action against AVEFA in % [16]: 80%; Post-emergence action against LOLRI in % ([18]; dosage 80 g/ha): 80%; Post-emergence action against MATIN in % [19]: 80%; Post-emergence action against VERPE in % ([22]; 320 g/ha, VERPE): 80%; Post-emergence action against VERPE in % ([22]; dosage 80 g/ha): 80%; Post-emergence action against VIOTR in % ([23]; 80 g/ha): 80%; Post-emergence action against VIOTR in % ([23]; 320 g/ha): 80%; Post-emergence action against ZEAMX in % [25]: 10%
CCOC(=O)CSc1nn(-c2ccccn2)c(-c2cncc(F)c2)c1I [Example I-152]	80	100	90	–	90	–	90	90	80	20	80	80	80	80	80	–	80	90	80	0	Pre-emergence action against ZEAMX in % [26]: 10%; Post-emergence action against AMARE in % ([15]; 80 g/ha, visual rating about 3 weeks after treatment vs untreated controls (100% = plants have died, 0% = like control plants)): 80%; Post-emergence action against SETVI in % ([27]; dosage 80 g/ha): 80%; Post-emergence action against SETVI in % ([27]; dosage 320 g/ha): 80%; Post-emergence action against VERPE in % ([22]; 320 g/ha, VERPE): 80%
COCCOC(=O)COc1nn(-c2ncccc2C(F)(F)F)c(-c2ccc(F)nc2)c1Cl [Example I-362]	100	90	–	100	–	80	80	100	–	20	–	90	–	–	80	80	–	80	–	10	Pre-emergence action against ZEAMX in % [26]: 0%; Post-emergence action against SETVI in % ([27]; dosage 320 g/ha): 80%; Post-emergence action against VIOTR in % ([23]; 80 g/ha): 80%; Post-emergence action against VIOTR in % ([23]; 320 g/ha): 80%; Post-emergence action against ZEAMX in % [25]: 0%
